In patent US5456923A, “Method of manufacturing solid dispersion” (priority 1991, dated 1995):
In brackets after ≈: the same amount, converted by molar mass. Where a name gives a salt, the structure may show the parent alone.

Test: physchem
Settings: jp test solution 2
Experimental: Test method: Saturation dissolution method
Test conditions: Constanttemperature bath (25° C.)
Ultracentrifugation: 40000 rpm × 1 hr; the supernatant analyzed by

| Structure (SMILES) | solubility at 24 h |
| --- | --- |
| COC(=O)C1=C(C)NC(C)=C(P2(=O)OCCCO2)C1c1ccccc1[N+](=O)[O-] (centres unmarked) [Compound A, methyl 2,6-dimethyl-4-(2-nitrophenyl)-5-(2-oxo-1,3,2-dioxaphosphorinan-2-yl)-1,4-dihydropyridine-3-carboxylate] | 36.5 µg/mL (≈ 89.4 µM) |
| COC(=O)C1=C(C)NC(C)=C(C(=O)OCCN(C)Cc2ccccc2)C1c1cccc([N+](=O)[O-])c1 (centres unmarked) [nicardipine hydrochloride] | 8.5 µg/mL |
